Source: US9656981B2, “Peripherally-acting cannabinoid receptor agonists for chronic pain” (The Regents of the University of California, priority 2012, dated 2017)
Like-named read-outs stand apart in the source and are kept apart here.

Legend:
CB1R = CB1R (Homo sapiens, UniProt P21554); assay: CB1R radioligand displacement binding assay (CP55940 radioligand)
Protocol: Heterologous competition binding assays were performed to calculate receptor affinities. Unlabeled SR141716 or SR144528 were used as appropriate controls for non-specific binding (NSB) in the assay. Calculation of the equilibrium dissociation constant (Ki) was performed using the Cheng-Prusoff equation.

CB2R = CB2R (Homo sapiens, UniProt P34972); assay: CB2R radioligand displacement binding assay (CP55940 radioligand)
Sequence of CB2R (P34972 whole entry): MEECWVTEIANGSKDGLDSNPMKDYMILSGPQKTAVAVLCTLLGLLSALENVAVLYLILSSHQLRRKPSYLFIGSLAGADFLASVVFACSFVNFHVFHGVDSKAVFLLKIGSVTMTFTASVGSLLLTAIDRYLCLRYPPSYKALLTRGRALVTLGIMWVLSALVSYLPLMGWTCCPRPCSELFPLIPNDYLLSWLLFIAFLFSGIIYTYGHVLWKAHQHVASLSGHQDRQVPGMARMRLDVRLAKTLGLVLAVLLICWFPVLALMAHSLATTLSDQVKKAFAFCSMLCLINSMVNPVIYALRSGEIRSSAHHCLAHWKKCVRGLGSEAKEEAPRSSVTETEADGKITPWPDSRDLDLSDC
Protocol: Detailed radioligand displacement assays (using the well-characterized CBR agonist […] as the radioligand) were conducted to determine the affinity (Ki) of the test compounds for CB1R and CB2R as has been previously described by our group^112,113. Heterologous competition binding assays were performed to calculate receptor affinities. Unlabeled SR141716 or SR144528 were used as appropriate controls for non-specific binding (NSB) in the assay. Calculation of the equilibrium dissociation constant (Ki) was performed using the Cheng-Prusoff equation.

[1] = Table 1, CP55940 radioligand, read-out: CB1_KI_CP

Sequence of CB1R (P21554 whole entry): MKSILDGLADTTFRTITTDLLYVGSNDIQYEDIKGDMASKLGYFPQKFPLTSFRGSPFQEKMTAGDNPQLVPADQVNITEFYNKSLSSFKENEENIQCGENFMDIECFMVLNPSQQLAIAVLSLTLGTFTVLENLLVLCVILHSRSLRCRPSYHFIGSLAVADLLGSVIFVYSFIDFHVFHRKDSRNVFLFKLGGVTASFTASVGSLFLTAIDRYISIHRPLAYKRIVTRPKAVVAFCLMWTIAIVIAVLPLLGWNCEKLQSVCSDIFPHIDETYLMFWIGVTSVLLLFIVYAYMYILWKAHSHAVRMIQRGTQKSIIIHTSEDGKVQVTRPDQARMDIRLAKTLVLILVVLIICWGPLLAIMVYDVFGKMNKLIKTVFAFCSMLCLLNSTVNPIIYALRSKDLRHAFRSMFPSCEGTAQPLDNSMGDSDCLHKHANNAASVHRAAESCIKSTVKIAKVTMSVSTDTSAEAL

Molecule `CCCCCn1cc(C(=O)c2cccc3ccccc23)c2ccccc21` [Compound 1, 3-(naphthalene-1-carbonyl)-1-pentyl-1H-indole, reference compound] has a Ki (CB1R; [1]) of 4.31 nM and a Ki (CB2R) of 7.38 nM.

`C1=C(CCN2CCOCC2)c2ccccc2/C1=C/c1ccc2c3c(cccc13)CC2` [Compound 12, 4-{2-[(1E)-1-(1,2-dihydroacenaphth-ylen-5-ylmethylidene)-1H-inden-3-yl]ethyl} morpholine] gave a Ki (CB1R; read-out: CB1R binding affinity (Ki)) of 15.9 nM and a Ki (CB2R; Table 1, CP55940 radioligand, read-out: CB2_KI_CP) of 4.22 nM.

In the case of `C1=C(CCN2CCOCC2)c2ccccc2/C1=C/c1cccc2ccc3ccccc3c12` [Compound 13, 4-{2-[(1E)-1-(phenanthren-4-ylmethylidene)-1H-inden-3-yl]ethyl} morpholine], the Ki (CB1R; [1]) is reported as 22.9 nM and the Ki (CB2R) is reported as 6 nM.

`C1=C(CCN2CCOCC2)c2ccccc2/C1=C/c1ccnc2ccccc12` [Compound 14, 4-{[(1E)-3-[2-(morpholin-4-yl)ethyl]-1H-inden-1-ylidene]methyl} quinoline] showed a Ki (CB1R) of 23 nM, a Ki (CB1R; [1]) of 23.3 nM and a Ki (CB2R) of 12.1 nM.

Work on `CC1=C(CCN2CCOCC2)c2ccccc2/C1=C/c1cccc2ccccc12` [Compound 15, 4-{2-[(1E)-2-methyl-1-(naphthalen-1-ylmethylidene)-1H-inden-3-yl]ethyl} morpholine] yielded a Ki (CB2R) of 2.84 nM.

Work on `C1=C(CCN2CCOCC2)c2ccccc2/C1=C/c1ccccc1-c1ccccc1` [Compound 16, 4-{2-[(1E)-1-[(2-phenylphenyl)methylidene]-1H-inden-3-yl]ethyl} morpholine] yielded a Ki (CB1R; [1]) of 82.9 nM and a Ki (CB2R) of 15.3 nM.

In the case of `C1=C(CCN2CCOCC2)c2ccccc2/C1=C/c1cccc2cc[nH]c12` [Compound 17, 7-{[(1E)-3-[2-(morpholin-4-yl)ethyl]-1H-inden-1-ylidene]methyl}-1H-indole], the Ki (CB1R; [1]) is reported as 107 nM and the Ki (CB2R) is reported as 8.7 nM.

With `COc1ccccc1/C=C1\C=C(CCN2CCOCC2)c2ccccc21` [Compound 18, 4-{2-[(1E)-1-[(2-methoxyphenyl)meth-ylidene]-1H-inden-3-yl]ethyl} morpholine] the Ki (CB1R; [1]) was 149 nM and the Ki (CB2R) was 29.8 nM.

Molecule `CCCCCC1=C/C(=C\c2cccc3ccccc23)c2ccccc21` [Compound 19, 1-{[(1E)-3-pentyl-1H-inden-1-ylidene]methyl} naphthalene, reference compound] has a Ki (CB1R; [1]) of 17.2 nM and a Ki (CB2R) of 163 nM.

`C1=C(CCN2CCOCC2)c2ccccc2/C1=C/c1ccc2ccccc2c1` [Compound 20, 4-{2-[(1E)-1-(naphthalen-2-ylmethylidene)-1H-inden-3-yl]ethyl} morpholine] showed a Ki (CB1R; [1]) of 134 nM and a Ki (CB2R) of 24.4 nM.

`CCCCCCC1=C/C(=C\c2cccc3ccccc23)c2ccccc21` [Compound 21, 1-{[(1E)-3-hexyl-1H-inden-1-ylidene]methyl} naphthalene] gave a Ki (CB2R) of 1450 nM.

With `C1=C(CCN2CCOCC2)c2ccccc2/C1=C/c1cccc2cnccc12` [Compound 22, 5-{[(1E)-3-[2-(morpholin-4-yl)ethyl]-1H-inden-1-ylidene]methyl} isoquinoline] the Ki (CB1R; [1]) was 454 nM and the Ki (CB2R) was 51.4 nM.

`Ic1ccccc1/C=C1\C=C(CCN2CCOCC2)c2ccccc21` [Compound 23, 4-{2-[(1E)-1-[(2-iodophenyl)methyl-idene]-1H-inden-3-yl]ethyl} morpholine] gave a Ki (CB1R; [1]) of 607 nM and a Ki (CB2R) of 109 nM.

Molecule `Cc1ccccc1/C=C1\C=C(CCN2CCOCC2)c2ccccc21` [Compound 24, 4-{2-[(1E)-1-[(2-methylphenyl)methylidene]-1H-inden-3-yl]ethyl} morpholine] has a Ki (CB1R; [1]) of 623 nM and a Ki (CB2R) of 95.4 nM.

With `Brc1ccccc1/C=C1\C=C(CCN2CCOCC2)c2ccccc21` [Compound 25, 4-{2-[(1E)-1-[(2-bromophenyl)methylidene]-1H-inden-3-yl]ethyl} morpholine] the Ki (CB1R; [1]) was 647 nM and the Ki (CB2R) was 206 nM.

`Clc1ccccc1/C=C1\C=C(CCN2CCOCC2)c2ccccc21` [Compound 26, 4-{2-[(1E)-1-[(2-chlorophenyl)methylidene]-1H-inden-3-yl]ethyl} morpholine] gave a Ki (CB1R; [1]) of 862 nM.

`Fc1ccccc1/C=C1\C=C(CCN2CCOCC2)c2ccccc21` [Compound 28, 4-{2-[(1E)-1-[(2-fluorophenyl)methylidene]-1H-inden-3-yl]ethyl} morpholine] gave a Ki (CB1R; [1]) of 1000 nM and a Ki (CB2R) of 429 nM.

In the case of `C1=C(CCN2CCOCC2)c2ccccc2/C1=C/c1ccccc1` [Compound 29, 4-{2-[(1E)-1-(phenyl-methylidene)-1H-inden-3-yl]ethyl} morpholine], the Ki (CB1R; [1]) is reported as 1300 nM and the Ki (CB2R) is reported as 295 nM.

For `C1=C(CCN2CCOCC2)c2ccccc2/C1=C/c1cccs1` [Compound 30, 4-{2-[(1E)-1-(thiophen-2-ylmethylidene)-1H-indene-3-yl]ethyl} morpholine], the Ki (CB1R; [1]) was 8530 nM and the Ki (CB2R) was 3020 nM.

For `C1=C(CCN2CCOCC2)c2ccccc2/C1=C/c1ccco1` [Compound 31, 4-{2-[(1E)-1-(furan-2-ylmethylidene)-1H-inden-3-yl]ethyl} morpholine], the Ki (CB2R) was 1260 nM.

In the case of `C[N+]1(CCC2=C/C(=C\c3cccc4ccccc34)c3ccccc32)CCOCC1` [Compound 35, 4-methyl-4-{2-[(1E)-1-(naphthalen-1-ylmethylidene)-1H-inden-3-yl]ethyl} morpholin-4-ium iodide], the Ki (CB1R; [1]) is reported as 982 nM.

For `CC1=C(CC[N+]2(C)CCOCC2)c2ccccc2/C1=C/c1cccc2ccccc12` [Compound 36, 4-methyl-4-{2-[(1E)-2-methyl-1-(naphthalen-1-ylmethylidene)-1H-inden-3-yl]ethyl} morpholin-4-ium iodide], the Ki (CB1R; [1]) was 1610 nM.

`C1=C(CCN2CCOCC2)c2ccccc2/C1=C/c1cccc(-c2ccccc2)c1` [Compound 37, 4-{2-[(1E)-1-[(3-phenylphenyl)methylidene]-1H-inden-3-yl]ethyl} morpholine] showed a Ki (CB1R; [1]) of 2600 nM and a Ki (CB2R) of 132 nM.

With `CCCCCCC1=C/C(=C\Cc2ccccc2)c2ccccc21` [Compound 38, (1E)-3-hexyl-1-(2-phenyl-ethylidene)-1H-indene] the Ki (CB1R) was 4410 nM and the Ki (CB2R) was 13700 nM.

`O=C(c1cccc2ccccc12)c1cn(CCN2CCOCC2)c2ccccc12` [Compound 39, 1-[2-(morpholin-4-yl)ethyl]-3-(naphthalene-1-carbonyl)-1H-indole, reference compound] showed a Ki (CB1R; [1]) of 81.6 nM.

`COc1ccc(C(=O)c2cn(CC[N+]3(C)CCOCC3)c3ccccc23)c2ccccc12` [Compound 41, 4-{2-[3-(4-methoxynaphth-alene-1-carbonyl)-1H-indol-1-yl]ethyl}-4-methylmorpholin-4-ium iodide] gave a Ki (CB1R; [1]) of 4080 nM.

`COc1ccc(C(=O)c2cn(CCN3CCOCC3)c3ccccc23)c2ccccc12` [Compound 42, 3-(4-methoxynaphtha-lene-1-carbonyl)-1-[2-(morpholin-4-yl)ethyl]-1H-indole, reference compound] gave a Ki (CB1R; [1]) of 88.1 nM.

Molecule `Cc1ccc(C(=O)c2cn(CC[N+]3(C)CCOCC3)c3ccccc23)c2ccccc12` [Compound 43, 4-methyl-4-{2-[3-(4-methyl-naphthalene-1-carbonyl)-1H-indol-1-yl]ethyl}morpholin-4-ium iodide] has a Ki (CB1R; [1]) of 4170 nM.

For `Cc1ccc(C(=O)c2cn(CCN3CCOCC3)c3ccccc23)c2ccccc12` [Compound 44, 3-(4-methyl-naphthalene-1-carbonyl)-1-[2-(morpholin-4-yl)ethyl]-1H-indole, reference compound], the Ki (CB1R; [1]) was 20.2 nM.

`CCOC(=O)CCCn1cc(C(=O)c2cccc3ccccc23)c2ccccc21` [Compound 50, ethyl 4-[3-(naphthalene-1-carbonyl)-1H-indol-1-yl]butanoate] gave a Ki (CB1R; [1]) of 747 nM.

In the case of `CCOC(=O)CCCCn1cc(C(=O)c2cccc3ccccc23)c2ccccc21` [Compound 53, ethyl 5-[3-(naphthalene-1-carbonyl)-1H-indol-1-yl]pentanoate], the Ki (CB1R; [1]) is reported as 1470 nM.

With `CCCCCn1cc(C(=O)c2ccc(C(=O)OCC)c3ccccc23)c2ccccc21` [Compound 58, ethyl 4-(1-pentyl-1H-indole-3-carbonyl)naphth-alene-1-carboxylate] the Ki (CB1R; [1]) was 115 nM and the Ki (CB2R) was 53.9 nM.

`CCCCCn1cc(C(=O)c2ccc(C(N)=O)c3ccccc23)c2ccccc21` [Compound 59, 4-(1-pentyl-1H-indole-3-carbonyl)naph-thalene-1-carboxamide] showed a Ki (CB1R; [1]) of 96.6 nM and a Ki (CB2R) of 135 nM.

Work on `CCCCCn1cc(C(=O)c2ccc(C(=O)NC)c3ccccc23)c2ccccc21` [Compound 60, N-methyl-4-(1-pentyl-1H-indole-3-carbonyl) naphthalene-1-carboxamide] yielded a Ki (CB1R; [1]) of 127 nM and a Ki (CB2R) of 303 nM.

`O=C(c1cccc2ccccc12)c1cn(CCCCCF)c2cccc(F)c12` [Compound 66, 4-fluoro-1-(5-fluoropentyl)-3-(naphthalene-1-carbonyl)-1H-indole] showed a Ki (CB1R; [1]) of 4.38 nM and a Ki (CB2R) of 2.94 nM.

Molecule `O=C(c1cccc2ccccc12)c1cn(CCN2CCOCC2)c2cccc(F)c12` [Compound 68, 4-fluoro-1-[2-(morpholin-4-yl)ethyl]-3-(naphthalene-1-carbonyl)-1H-indole] has a Ki (CB1R; [1]) of 237 nM and a Ki (CB2R) of 95.2 nM.
